This note sets out measurements from patent publication US11426371B2, “Compositions and methods for treating cancer” (University of Virginia Patent Foundation, priority 2017, dated 2022).

Like-named read-outs stand apart in the source and are kept apart here.

The subject of data set [1] is normal samples (PBMCs and/or CD34+ cells). Kind of data set: Viability of normal samples, MTS and Cell Titer Glo (FIG. 4, Table 2). The conditions noted are these: PBMC. It counts as cell-based. The method, then: AML cell lines and normal samples (PBMCs and/or CD34+ cells) were treated for 24 hours with SACLAC (FIG. 4A-7 cell lines) and similar AC inhibitor SABRAC (2-bromo-N-((2S,3R)-1,3-dihydroxyoctadecan-2-yl)acetamide) (FIG. 4B-four cell lines). Viability was assessed by MTS and Cell Titer Glo viability assays. EC50 values (FIG. 4C) were graphed to visualize fold-change between AML and normal cells with treatment of each compound. […] Cells tested for SABRAC were HL60/VCR and OCI-AML2 AML cell lines and two normal PBMC control samples (PBMC1 and PBMC2). The same four cell types were tested for SACLAC, as well as the AML cell line THP-1 and two normal CD34+ cell control samples (CD34+1 and CD34+2).
Next, we tested the toxicity of SACLAC and a similar published AC inhibitor SABRAC^17 to normal hematopoietic cells to ensure that AML cells are selectively targeted by the compound (FIG. 4A). […] This degree of selectivity was unexpected but extremely important for potential clinical use. […] This remarkable increase in selectivity is a surprising discovery that greatly exceeds the predicted similarity in compound behavior that one may expect with a simple substitution of one halogen for another (Cl for Br).

The target of data set [2] is T1, acid ceramidase (AC) (Homo sapiens, UniProt Q13510).
T1 sequence (Q13510 143-395 limits assumed): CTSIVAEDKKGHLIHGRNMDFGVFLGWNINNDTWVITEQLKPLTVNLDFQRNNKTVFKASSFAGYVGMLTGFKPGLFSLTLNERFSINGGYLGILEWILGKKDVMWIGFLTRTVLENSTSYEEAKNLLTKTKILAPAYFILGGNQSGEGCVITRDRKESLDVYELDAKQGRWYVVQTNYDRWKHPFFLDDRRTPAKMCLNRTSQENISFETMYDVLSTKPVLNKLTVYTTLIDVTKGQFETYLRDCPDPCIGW
T1 sequence (Q13510 22-142 limits assumed): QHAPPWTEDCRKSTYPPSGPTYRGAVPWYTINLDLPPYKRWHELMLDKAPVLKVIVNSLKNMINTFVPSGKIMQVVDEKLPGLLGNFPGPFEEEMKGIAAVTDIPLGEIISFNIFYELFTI
Kind of data set: AC inhibition in lysates from cells overexpressing the enzyme. Also on record: expressed in transfected cells. It counts as biochemical.

Data set [3] can be described thus: SACLAC serum/blood levels after i.p. or i.v. administration. Format: in vivo, mouse. The method, then: FIG. 7 graphically depicts SACLAC levels in mouse blood following administration intraperitoneally (i.p.) at 40 mg/kg body weight or intravenously (i.v.) at 5 mg/kg body weight. The ordinate represents Concentration (nM) and the abscissa Time (hours). DMSO (dimethyl sulfoxide) and β-HPCD (2-hydroxypropyl […]) represent the vehicle for SACLAC delivery.
Serum concentrations of SACLAC were also determined following administration. (see FIG. 7). […] SACLAC was dissolved in dimethyl sulfoxide (DMSO) or 2-hydroxypropyl-β-cyclodextrin (β-HPCD). Serum levels were determined following injection of free SACLAC (i.p.—in DMSO at 40 mg/kg; or i.v.—5 mg/kg in β-HPCD). […] They also show our ability to generate and characterize in vitro functionality by modifying delivery and delivery systems, monitor PK and evolve our approaches based on experimental results in order to maximize in vivo efficacy.

Data set [4] deals with hAML cell lines. Kind of data set: Time course studies of apoptosis and mitochondrial membrane depolarization. Format: cell-based, human.
In data set [5] the target is T1, acid ceramidase (AC). In words: LC/MS analysis of tryptic digests of AC incubated with SACLAC. Further details: expressed in transfected cells. The conditions noted are these: peptide C,T,S,I,V,A,E,D,K. Format: binding.
Data set [6] concerns Human AML cell lines (n = 30). In words: Cell viability, average over the panel of AML cell lines. The conditions noted are these: mean over 30 human AML cell lines. Format: cell-based. The procedure:
Representative human AML cell lines (FIG. 2A; upper and lower panels) HL60/VCR and (FIG. 2B; upper and lower panels) OCI-AML2 were treated with SACLAC for 24 and 48 hours. Viability was assessed by MTS assay at 24 and 48 hours and apoptosis was assessed by flow cytometry at 48 hours. Upper panels represent % viability and lower panels indicate % apoptosis.
Two representative human-derived AML cell lines, HL60/VCR and OCI-AML2, are shown. These studies have been expanded to a large panel of additional human AML cell lines (n=30, Table 1).

The subject of data set [7] is MV4-11 hAML xenograft. In words: Human AML cell line mouse xenograft model. The conditions noted are these: 5 mg/kg i.v. daily M to F for 18 days in β-HPCD, MV4-11-engrafted NSG mice, p<0.05. Format: in vivo.

Turning to `CCCCCCCCCCCCCCC[C@@H](O)[C@H](CO)NC(=O)CCl` [SACLAC, 2-chloro-N-((2S,3R)-1,3-dihydroxyoctadecan-2-yl)acetamide], the EC50 in data set [1] (24 h, mean of normal samples (PBMCs and/or CD34+ cells), 24 hours, read-out: EC50 Normal) is 13.5 µM; in data set [1] (24 h, normal controls at 24 h, mean ± spread, read-out: EC50, normal controls), 13.5 ± 7.1 µM; in data set [1] (n=10, read-out: mean EC50, normal PMBC and CD34+ controls), 6 µM; in data set [6] (24 h, read-out: EC50 24 h, Average), 2.3 µM; in data set [6] (48 h, read-out: EC50 48 h, Average) it was 1.9 µM. Moreover, the IC50 worked out at 0.0467 µM in data set [2] (irreversible binding to its binding site, read-out: IC50) and 0.046 µM in data set [2] (lysates from cells overexpressing the enzyme, read-out: IC50, AC inhibition). For the same compound, in data set [3] (i.p. injection), the “uptake following i.p. injection” value was “suboptimal uptake”. In addition, the serum levels entry is “low serum levels” in data set [3] (i.p., 40 mg/kg in DMSO) and “great improvement” in data set [3] (i.v., 5 mg/kg in β-HPCD, compared with i.p.). Besides, the “mitochondrial membrane potential, time course” value in data set [4] (concurrent with apoptosis induction) is reported as “mitochondrial membrane depolarization”. In addition, the “apoptosis, time course” value in data set [4] (time course studies) was “apoptosis induction”. Moreover, in data set [5], the “covalent modification of AC peptide” value is on record as “formation of the expected lipid modified peptide”. In data set [7], the “leukemic burden (human CD45+ cells, YFP expression, percent double positive cells)” value was “reduced leukemic burden”.
